Consider 2 compounds from patent publication US20120108641A1, “ANTITUMOR COMBINATION INCLUDING AVE8062 AND SORAFENIB” (SANOFI, priority 2009, published 2012).

SMILES strings stand for the structures. “And” between values parts separate entries of the source, which are not always exact repeats. Equal values may be shown once. Read-outs that look alike come from different tables or passages of the source.

Data set [1] can be described thus: Study 3: toxicity, highest non-toxic dose. The data set is classed as in vivo, female SCID mice. As to conditions: Study 3, AVE8062 alone i.v. days 9, 14. The procedure:
The animals are observed and weighed every day.
The AVE8062 was administered intravenously on days 9 and 14 post implantation of the NCI-H460 pulmonary tumour in female SCID mice.

Data set [2] concerns NCI-H460 human non-small cell lung tumour. In words: Study 3: sorafenib administered 24 h after AVE8062, antitumour activity. The data set is classed as in vivo, female SCID mice. The text has this:
(§1) A product is considered to be active if the log10 cell kill is greater than or equal to 0.7.
(§2) The activity in this case is acknowledged for a net log cell kill that is positive (>0). A cytostatic activity corresponds to a net log cell kill of 0, that is to say that the treatment time is equal to the duration of the antitumour effect.
(§3) In the case of an early tumour treatment, the implanted animals are distributed randomly in various groups which are, or are not (controls), intended to receive the treatment(s). […] The animals are observed and weighed every day. A dose which induces a weight loss of 20% or more at the lowest point (average of the group) or a mortality of 10% or more is considered to be toxic. The tumour activity is evaluated at the highest non-toxic dose, or at the highest dose tested, within the context of a non-cytotoxic agent.
(§4) The tumours are measured 2 or 3 times a week until the tumour reaches approximately 2 g or until the animal dies, if this occurs before the tumour reaches 2 g. The animals are autopsied when they are sacrificed.
(§5) The antitumor activity is determined in accordance with various recorded parameters, such as the dose (mg/kg), the method of administration, the administration time, the toxicity and the log10 cell kill, which depends on the tumour growth delay and also on the tumour doubling time.
(§6) Within the context of the following studies, the AVE8062, in hydrochloride form, is formulated in water with 0.9% NaCl.
Study 3: Sorafenib Administered 24 h after AVE8062 in the Combination (Table III)
The AVE8062 was administered intravenously on days 9 and 14 post implantation of the NCI-H460 pulmonary tumour in female SCID mice. The sorafenib was administered orally from day 9 to day 20. When the 2 agents were administered in combination, the same schedules were used as for the agents alone, but the administrations of sorafenib were started 24 hours after that of AVE8062.

The procedure of data set [3]: as §3, §6
(§7) The AVE8062 was administered intravenously on days 10 and 14 post tumour implantation. The sorafenib was administered orally from day 10 to day 14. The two agents were administered in combination, according to the same schedules as those used for the agents alone, but the administration of sorafenib having been staggered one hour after the administration of the AVE8062.

Data set [4] concerns NCI-H460 human non-small cell lung tumour. In words: Study 2: sorafenib administered 1 h after AVE8062, antitumour activity. The data set is classed as in vivo, female SCID mice.
Excerpt: as §1, §3, §4, §5, §6
Study 2: Sorafenib Administered 1 h after AVE8062 in the Combination (Table II)
as §7

Data set [5] has the same test system. In words: Study 1: sorafenib administered simultaneously with AVE8062, antitumour activity. It is filed as in vivo, female SCID mice. Particulars: AVE8062 22.3 mg/kg per injection i.v. days 9, 13.
Excerpt: as §1, §2, §3, §4, §5, §6
Study 1: Sorafenib Administered Simultaneously with AVE8062 (Table I)
The AVE8062 was administered intravenously on days 9 and 13 post tumour implantation. The sorafenib was administered orally from day 9 to day 24. When the two agents were administered in combination, the same schedules were used as for the agents alone, the combination of the two agents having been carried out simultaneously on days 9 and 13.

The mark [6] stands for this setting: AVE8062 22.3 mg/kg per injection i.v. days 9, 14.
Where [7] appears, read: AVE8062 22.3 mg/kg/admin i.v. days 10, 14.
[8] abbreviates: sorafenib 100.0 mg/kg per injection p.o. days 9-20.
Setting [9] is: sorafenib 100.0 mg/kg/admin p.o. days 10-14.

For `COc1ccc(/C=C\c2cc(OC)c(OC)c(OC)c2)cc1NC(=O)[C@@H](N)CO` [AVE8062, (Z)—N-[2-methoxy-5-[2-(3,4,5-trimethoxyphenyl)vinyl]phenyl]-L-serinamide], the “highest non-toxic dose (HNTD)” value in data set [1] came out at 36 mg/kg per injection. Besides, in data set [2] (setting [6]), the CR is on record as 0/6, the Observations result is listed as “Active”, the PR was 0/6 and the “gross log cell kill” value is 1.7. Also, the “net log cell kill” value in data set [2] (setting [6]) was 0.3. In data set [3] (setting [7]), the “Mortality (day of death)” value is 0/5. In addition, the “% BWC (day of lowest point)” value in data set [3] (AVE8062 22.3 mg/kg/admin i.v. days 10, 14, lowest point day 21) is recorded as −3.2 (21) %. The “highest non-toxic dose (HNTD)” value in data set [3] (Study 2, AVE8062 alone i.v. days 10, 14) is listed as 22.3 mg/kg per injection. In addition, in data set [4] (setting [7]), the Observations entry was “HNTD - active”, the Regressions complete was 0/5, the “T − C” value came out at 5.8 days and the log cell kill worked out at 1.1. Besides, in data set [4] (AVE8062 22.3 mg/kg/admin i.v. days 10, 14, 22.3 mg/kg), the Regressions partial entry was “without inducing tumour regression and 0/5”. Moreover, in data set [5], the CR is 0/6, the Observations entry is “Inactive”, the PR is 0/6 and the log cell kill was 0.6. Moreover, the “net log cell kill” value in data set [5] is recorded as −0.1.
Take `CNC(=O)c1cc(Oc2ccc(NC(=O)Nc3ccc(Cl)c(C(F)(F)F)c3)cc2)ccn1` [Sorafenib, 4-[4-[[4-chloro-3-(trifluoromethyl)phenyl]carbamoylamino]phenoxy]-N-methylpyridine-2-carboxamide]: in data set [2] (setting [8]), the CR is recorded as 0/6, the Observations entry is listed as “HDT - no cytostasis”, the PR is reported as 0/6 and the “gross log cell kill” value is reported as 2.4. In addition, the “net log cell kill” value in data set [2] (setting [8]) is −0.4. Also, in data set [3] (setting [9]), the “Mortality (day of death)” value was 0/6. In data set [4] (setting [9]), the Observations entry was “HDT - Active”, the Regressions complete is reported as 0/6, the Regressions partial is listed as 0/6 and the “T − C” value is recorded as 6.1 days. Further, in data set [4] (setting [9]), the log cell kill is 1.1.
